pEC50: −log10 of the molar value.
Molecular target: Ras-related protein Rab-7a (dog), GTP binding
Assay: blockers of fluorescent GTP binding to Rab7 – biochemical, wildtype, multiplex bead flow cytometry, dose response (AID 1336)
Details: bead-based flow cytometry

Row | SMILES | pEC50
1 | CCOc1ccc(/C=C2\SC(N3CCc4ccccc4C3)=NC2=O)cc1 | 4.94
2 | COC(=O)c1cccnc1SCCc1ccccc1 | 4.85
3 | N#Cc1c(-c2ccccc2)nc(SCC(=O)Nc2ccccc2)[nH]c1=O | 5.19
4 | Cc1cc(C(=O)Oc2ccccc2C(=O)O)c(C)o1 | 6.09
5 | Cc1cc(C(=O)O)sc1CNCc1ccccc1Cl | 6.37
6 | O=C(O)c1ccccc1NCCc1ccc(Cl)cc1 | 6.47
7 | O=C(O)c1ccccc1Sc1ncnc2sc3c(c12)CCC3 | 5.58
8 | Cc1sc(-n2c(C)cc(C=C3C(=O)NC(=O)NC3=O)c2C)c(C#N)c1C | 4.54
9 | O=C(O)/C=C/c1cn(Cc2ccccc2)nc1-c1cccs1 | 5.63
10 | CC(C)C(NCc1c(Cl)cccc1Cl)C(=O)O (configuration not stated) | 5.65
11 | O=C1CN=C(c2ccccc2)c2cc(Br)ccc2N1Cc1cc(=O)n2ccccc2n1 | 5.57
12 | Cc1nn(Cc2ccccc2)c(Cl)c1C(=O)O | 5.45
